This note sets out measurements from US20230117034A1, “PYRAZOLOTRIAZINES” (Bayer Aktiengesellschaft, priority 2019, published 2023).

Assay [1] concerns BRCA1 mRNA expression in MDA-MB-231 cells. The assay can be described thus: qRT-PCR assay: BRCA1 mRNA expression in MDA-MB-231. Format: cell-based, human. To be noted: Homo sapiens, MDA-MB-231, Inhibition of BRCA1 mRNA expression in MDA-MB-231 cells; median; read-out: RTqPCR-MDA-MB-231, IC50, BRCA1 (median). The protocol: 3. qRT-PCR Assay: BRCA, ATR, MCL1 in MDA-MB-231, CAL-120
Tissue cultured human MDA-MB-231 human breast cancer cells were plated in 500 microL per well at 200,000 cells/well in a 24 well microtiter plate. After 24 h, the cells were exposed continuously for 24 h to test substances (substances were added with Tecan HP 0300 Dispenser). RNA was prepared using Qiagen RNeasy MiniKit (#74106), RNA was quantified using a NanoDrop Equipment, and 600 nano gamms of RNA was coverted to cDNA using a SuperScript VILO kit (Thermofisher #11755050) followed by qPCR amplification. BRCA1 and ATR gene expression was measured by RT-qPCR and normalised to GAPDH housekeeping gene expression. qPCR primer sets have been purchased from Thermo Fisher Scientific/Applied Biosystems: BRCA1, #Hs 01556193; ATR, #Hs 00992123; GAPDH, #Hs 03929097.

For assay [2], the system named is CAL-120, human breast adenocarcinoma cells. The assay can be described thus: Proliferation assay CAL-120 (crystal violet, 4 days). It counts as cell-based. To be noted: Homo sapiens, CAL-120, 96 h, CAL-120 cells, median, read-out: Prolif-CAL-120, IC50-[mol/l] (median). On the procedure:
Human tumour cells were originally obtained from the American Type Culture Collection (ATCC), or from the Deutsche Sammlung von Mikroorganismen und Zellkulturen (DSMZ, German Collection of Microorganisms and Cell Cultures). Cultivated tumour cells (CAL-120, human breast adenocarcinoma cells, DSMZ ACC-459; MDA-MB-231, human breast cancer cells, ATCC HTB-26) were plated at a density of 4,000 cells/well in a 96-well multititer plate in 200 microL of their respective growth medium supplemented 10% fetal calf serum. After 24 hours, the cells of one plate (zero-point plate) were stained with crystal violet (see below), while the medium of the other plates was supplemented with the test substances in various concentrations (0 micromol/L, as well as in the range of 0.01-10 micromol/L; the final concentration of the solvent dimethyl sulfoxide was adjusted to 0.1%) using a Tecan HP D300 Digital Dispenser. The cells were incubated for 4 days in the presence of test substances. Cell proliferation was determined by staining the cells with crystal violet: the cells were fixed by adding 20 microL/measuring point of an 11% glutaric aldehyde solution for 15 minutes at room temperature. After three washing cycles of the fixed cells with water, the plates were dried at room temperature. The cells were stained by adding 100 microL/measuring point of a 0.1% crystal violet solution (pH 3.0). After three washing cycles of the stained cells with water, the plates were dried at room temperature. The dye was dissolved by adding 100 microL/measuring point of a 10% acetic acid solution. The extinction was determined by photometry at a wavelength of 595 nm. The change of cell number, in percent, was calculated by normalization of the measured values to the extinction values of the zero-point plate (=0%) and the extinction of the untreated (0 μM) cells (=100%). The IC50 values (inhibitory concentration at 50% of maximal effect) were determined by means of a 4 parameter fit.

The target in assay [3] is T1, CYCLIN K (nuclear staining in CAL-120 cells) (Homo sapiens, UniProt O75909).
T1 construct: endogenous in cells; host or cells: CAL-120 human breast cancer cells (DSMZ ACC 459)
The assay can be described thus: CYCLIN K nuclear protein level: immunofluorescence high content analysis (CAL-120). Format: cell-based. To be noted: 24 h, 50% reduction of nuclear CCNK staining intensity, median, read-out: CYCLIN K degradation IF, DC50-[mol/l] (median). The protocol: 8. CYCLIN K nuclear protein level: immunofluorescence High Content Analysis
CAL-120 human breast cancer cells (DSMZ ACC 459) are seeded in 1536-well microtiter plates (800 cells per well) containing 50 nanoL of compounds in Dose-Response. Control wells received DMSO or Example 4. Plates are then incubated for 24 h at 37° C. in an humidified incubator and fixed with 4% PFA for 10 min. Then immunofluorescence (IF) against CYCLIN K (ThermoFisher Scientific CONK Antibody #PA5-85020, rabbit, 1:200 dilution) is performed using standard IF protocols. Cells are then stained with Hoechst 33342 (Life Technologies, H-1399, 0.1 microg/ml) and imaged on an automated confocal microscopy system (e.g. Perkin Elmer Opera Phenix). Nuclear and cytoplasmic intensity as well as the nuclear/cytoplasmic intensity ratio is determined by automated image analysis using custom generated scripts (MetaXpress). Data is then transferred to Genedata Screener software, normalized to DMSO and control and DC50 values (degrading concentration to achieve 50% reduction of nuclear CCNK staining intensity relative to controls) are reported.

Assay [4] deals with T2, CDK12 (nuclear staining in CAL-120 cells) (Homo sapiens, UniProt Q9NYV4).
T2 construct: endogenous in cells; host or cells: CAL-120 human breast cancer cells (DSMZ ACC 459)
The assay can be described thus: CDK12 nuclear protein level: immunofluorescence/high content analysis (CAL-120). To be noted: for DC50: CAL-120 cells, 24 h, immunofluorescence, 50% reduction of nuclear CDK12 staining intensity, median, read-out: CDK12 degradation IF, DC50- [mol/l] (median); for (IC50 CDK12 high ATP) to (Degradation DC50 CDK12) ratio: ratio of IC50 CDK12 high ATP kinase assay to DC50 CDK12 degradation (IF, CAL-120). Format: cell-based. The protocol:
In the context of the present invention, the term “DC50 CDK12” refers to the DC50 values obtained according to the assay described in this section (7) herein below, i.e. the DC50 values for the degradation of CDK12.
Plates are then incubated for 24 h at 37° C. in an humidified incubator and fixed with 4% PFA for 10 min. […] Nuclear and cytoplasmic intensity as well as the nuclear/cytoplasmic intensity ratio is determined by automated image analysis using custom generated scripts (MetaXpress). Data is then transferred to Genedata Screener software, normalized to DMSO and control and DC50 values (degrading concentration to achieve 50% reduction of nuclear CDK12 staining intensity relative to controls) are reported.

T2 sequence (Q9NYV4 whole entry): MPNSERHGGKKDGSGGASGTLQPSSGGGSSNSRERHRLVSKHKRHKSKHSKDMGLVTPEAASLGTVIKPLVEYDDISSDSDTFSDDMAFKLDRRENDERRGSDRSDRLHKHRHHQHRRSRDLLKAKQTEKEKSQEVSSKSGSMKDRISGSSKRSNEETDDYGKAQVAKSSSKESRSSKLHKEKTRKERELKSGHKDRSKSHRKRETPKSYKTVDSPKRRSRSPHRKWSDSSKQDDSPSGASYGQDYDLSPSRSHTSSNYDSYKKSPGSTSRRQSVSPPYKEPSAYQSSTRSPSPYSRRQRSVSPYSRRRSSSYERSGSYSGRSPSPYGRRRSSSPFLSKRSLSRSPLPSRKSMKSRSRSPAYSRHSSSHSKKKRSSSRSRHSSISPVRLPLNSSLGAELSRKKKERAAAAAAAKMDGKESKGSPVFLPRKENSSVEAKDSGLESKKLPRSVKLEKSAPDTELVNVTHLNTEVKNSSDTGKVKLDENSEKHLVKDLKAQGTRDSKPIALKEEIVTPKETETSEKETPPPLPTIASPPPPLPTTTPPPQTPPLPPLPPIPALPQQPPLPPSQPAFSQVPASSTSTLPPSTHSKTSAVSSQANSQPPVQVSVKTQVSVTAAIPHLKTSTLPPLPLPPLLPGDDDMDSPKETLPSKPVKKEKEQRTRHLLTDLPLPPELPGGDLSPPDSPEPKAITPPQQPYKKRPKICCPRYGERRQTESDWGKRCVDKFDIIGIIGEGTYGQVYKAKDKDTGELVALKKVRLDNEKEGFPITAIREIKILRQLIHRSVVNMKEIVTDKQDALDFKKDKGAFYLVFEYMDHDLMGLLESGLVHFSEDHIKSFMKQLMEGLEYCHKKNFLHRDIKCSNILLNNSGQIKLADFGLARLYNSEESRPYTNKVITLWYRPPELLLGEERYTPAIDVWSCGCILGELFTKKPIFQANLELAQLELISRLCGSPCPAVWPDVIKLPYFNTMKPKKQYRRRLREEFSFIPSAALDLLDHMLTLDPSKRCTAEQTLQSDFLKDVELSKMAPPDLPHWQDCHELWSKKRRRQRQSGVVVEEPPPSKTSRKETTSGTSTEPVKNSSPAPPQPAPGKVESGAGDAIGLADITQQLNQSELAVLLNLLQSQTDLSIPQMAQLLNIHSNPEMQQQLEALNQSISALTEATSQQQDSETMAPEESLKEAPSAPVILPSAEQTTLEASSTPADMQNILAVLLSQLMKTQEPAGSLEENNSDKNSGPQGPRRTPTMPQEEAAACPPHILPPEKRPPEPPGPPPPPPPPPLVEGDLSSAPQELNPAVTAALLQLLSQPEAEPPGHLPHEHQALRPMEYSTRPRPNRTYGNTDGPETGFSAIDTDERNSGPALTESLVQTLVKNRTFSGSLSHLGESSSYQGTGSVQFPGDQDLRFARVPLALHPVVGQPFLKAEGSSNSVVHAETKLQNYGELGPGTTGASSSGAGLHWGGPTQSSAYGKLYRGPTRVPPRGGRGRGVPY
T2 sequence (O75909 whole entry partner): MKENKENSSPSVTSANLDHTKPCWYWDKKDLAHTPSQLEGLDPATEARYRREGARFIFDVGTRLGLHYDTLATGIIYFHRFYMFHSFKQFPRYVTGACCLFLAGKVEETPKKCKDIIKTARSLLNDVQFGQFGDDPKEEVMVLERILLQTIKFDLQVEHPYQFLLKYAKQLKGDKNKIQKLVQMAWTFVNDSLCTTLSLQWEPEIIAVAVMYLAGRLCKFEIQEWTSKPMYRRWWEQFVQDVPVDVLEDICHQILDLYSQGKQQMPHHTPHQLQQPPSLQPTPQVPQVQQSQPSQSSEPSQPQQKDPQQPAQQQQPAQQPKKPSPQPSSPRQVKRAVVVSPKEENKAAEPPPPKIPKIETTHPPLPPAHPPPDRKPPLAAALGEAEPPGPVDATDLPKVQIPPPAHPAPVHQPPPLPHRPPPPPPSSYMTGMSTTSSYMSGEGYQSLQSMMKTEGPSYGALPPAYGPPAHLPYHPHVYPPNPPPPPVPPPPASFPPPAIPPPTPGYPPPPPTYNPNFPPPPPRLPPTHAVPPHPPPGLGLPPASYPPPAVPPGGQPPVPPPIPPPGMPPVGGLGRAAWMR
T1 sequence (O75909 whole entry): as the sequence (O75909 whole entry partner) above
T1 sequence (Q9NYV4 whole entry partner): as the sequence (Q9NYV4 whole entry) above

As to `CN1CCN(c2nc(NCc3nc4c(F)cccc4[nH]3)n3ncc(C4CC4)c3n2)CC1` [Example 165, 8-cyclopropyl-N-[(4-fluoro-1H-benzimidazol-2-yl)methyl]-2-(4-methylpiperazin-1-yl)pyrazolo[1,5-a][1,3,5]triazin-4-amine], the results for the IC50 in assay [1] and in assay [2] were 2.35 nM and 4.16 nM, respectively. Besides, the DC50 in assay [3] was 0.155 nM; in assay [4], 0.405 nM. In assay [4], the “(IC50 CDK12 high ATP) to (Degradation DC50 CDK12) ratio” value was found to be 25224.
The like results for `C[C@H]1CN(c2nc(NCc3nnc(-c4ccccc4)[nH]3)n3ncc(Br)c3n2)CCN1C.O=CO` [Example 122, 8-bromo-2-[(3S)-3,4-dimethylpiperazin-1-yl]-N-[(5-phenyl-4H-1,2,4-triazol-3-yl)methyl]pyrazolo[1,5-a][1,3,5]triazin-4-amine formate] were, in that order, 24.6 nM, 18.5 nM, 0.735 nM, 2.47 nM and above 8081.
The like results for `Brc1cnn2c(NCc3nc4ccccc4[nH]3)nc(N3CCNCC3)nc12` [Example 128, N-[(1H-benzimidazol-2-yl)methyl]-8-bromo-2-(piperazin-1-yl)pyrazolo[1,5-a][1,3,5]triazin-4-amine] were, in that order, 14.6 nM, 12.7 nM, 0.216 nM, 1.37 nM and 7939.
The like results for `Brc1cnn2c(NCc3nc4ccccc4[nH]3)nc(N3CCOCC3C3CC3)nc12` (centres unmarked) [Example 117, N-(1H-benzimidazol-2-ylmethyl)-8-bromo-2-(3-cyclopropylmorpholin-4-yl)pyrazolo[1,5-a][1,3,5]triazin-4-amine] were, in that order, 121 nM, 23.1 nM, 2.62 nM, 3.77 nM and 1278.
Consider `Fc1ccc(-c2nnc(CNc3nc(N4CCOCC4)nc4c(Br)cnn34)[nH]2)cc1F` [Example 99, 8-bromo-N-{[5-(3,4-difluorophenyl)-4H-1,2,4-triazol-3-yl]methyl}-2-(morpholin-4-yl)pyrazolo[1,5-a][1,3,5]triazin-4-amine], for which the IC50 in assay [1] was 11.2 nM; in assay [2], 54.7 nM. Moreover, the DC50 was found to be 3.05 nM in assay [3] and 6.7 nM in assay [4].
As for `C[C@H]1CCCCN1c1nc(NCc2nc3ccccc3[nH]2)n2ncc(Br)c2n1` [Example 141, N-[(1H-benzimidazol-2-yl)methyl]-8-bromo-2-[(2S)-2-methylpiperidin-1-yl]pyrazolo[1,5-a][1,3,5]triazin-4-amine], the IC50 in assay [1] was 16.4 nM; in assay [2], 24.5 nM. Further, the DC50 is 1.74 nM in assay [3] and 6.11 nM in assay [4]. Moreover, the “(IC50 CDK12 high ATP) to (Degradation DC50 CDK12) ratio” value in assay [4] was found to be 214.
The like results for `CN1CCN(c2nc(NCc3nc4c(F)cccc4[nH]3)n3ncc(Br)c3n2)CC1` [Example 126, 8-bromo-N-[(4-fluoro-1H-benzimidazol-2-yl)methyl]-2-(4-methylpiperazin-1-yl)pyrazolo[1,5-a][1,3,5]triazin-4-amine] were, in that order, 10.1 nM, 11 nM, 0.142 nM, 0.906 nM and 7539.
The like results for `Brc1cnn2c(NCc3nnc(-c4ccccc4)[nH]3)nc(N3CCNCC3)nc12.O=CO` [Example 119, 8-bromo-N-[(5-phenyl-4H-1,2,4-triazol-3-yl)methyl]-2-piperazin-1-yl-pyrazolo[1,5-a][1,3,5]triazin-4-amine formate] were, in that order, 21.3 nM, 7.75 nM, 3 nM, 1.54 nM and 4303.
As for `Brc1cnn2c(NCc3nc4ccccc4[nH]3)nc(N3C[C@H]4C[C@@H]3CO4)nc12` [Example 102, N-[(1H-benzimidazol-2-yl)methyl]-8-bromo-2-[(1R,4R)-2-oxa-5-azabicyclo[2.2.1]heptan-5-yl]pyrazolo[1,5-a][1,3,5]triazin-4-amine], the IC50 in assay [1] was 29.6 nM; in assay [2], 27 nM. Further, the DC50 in assay [3] was found to be 0.517 nM; in assay [4], 1.41 nM. Further, the “(IC50 CDK12 high ATP) to (Degradation DC50 CDK12) ratio” value in assay [4] was 4897.
The like results for `Brc1cnn2c(NCc3nc4ccccc4[nH]3)nc(N3C[C@@H]4C[C@H]3CO4)nc12` [Example 103, N-[(1H-benzimidazol-2-yl)methyl]-8-bromo-2-[(1S,4S)-2-oxa-5-azabicyclo[2.2.1]heptan-5-yl]pyrazolo[1,5-a][1,3,5]triazin-4-amine] were, in that order, 71.9 nM, 46.5 nM, 0.765 nM, 5.36 nM and 1914.
`Fc1ccc2[nH]c(CNc3nc(N4CCOCC4)nc4c(Br)cnn34)nc2c1` [Example 101, 8-bromo-N-[(5-fluoro-1H-benzimidazol-2-yl)methyl]-2-(morpholin-4-yl)pyrazolo[1,5-a][1,3,5]triazin-4-amine]: the figures for the IC50 in assay [1] and in assay [2] were 3.14 nM and 4.1 nM, respectively. The results for the DC50 in assay [3] and in assay [4] were 0.892 nM and 0.584 nM, respectively. Also, the “(IC50 CDK12 high ATP) to (Degradation DC50 CDK12) ratio” value in assay [4] stood at 3856.
Regarding `C[C@@H]1CN(c2nc(NCc3nnc(-c4ccccc4)[nH]3)n3ncc(Br)c3n2)C[C@H](C)N1` [Example 127, 8-bromo-2-[(3R,5S)-3,5-dimethylpiperazin-1-yl]-N-[(5-phenyl-4H-1,2,4-triazol-3-yl)methyl]pyrazolo[1,5-a][1,3,5]triazin-4-amine], the IC50 was 16.2 nM in assay [1] and 28.2 nM in assay [2]. For the same compound, the figures for the DC50 in assay [3] and in assay [4] were 2.77 nM and 5.1 nM, respectively. Further, the “(IC50 CDK12 high ATP) to (Degradation DC50 CDK12) ratio” value in assay [4] is 1905.
